These results are taken from patent publication US20230321187A1, “OCTOPUS-DERIVED PEPTIDE OCTOPROMYCIN HAVING ANTIBACTERIAL AND ANTI-BIOFILM ACTIVITY AGAINST ACINETOBACTER BAUMANNII” (priority 2020, published 2023).

For orientation: inhibition means how much of the control response was suppressed.

In data set [1] the test system is A. baumannii. As to the kind of experiment: Time-kill kinetics (OD 595 nm). Format: cell-based, Acinetobacter baumannii. The note with it: 10 μg/mL. As for the experimental part:
The MIC and MBC levels of octopromycin in A. baumannii were determined using media dilution tests and subcultures, respectively, according to the guidelines of the Clinical and Laboratory Standards Institute (CLSI, 2008 M27-A3). Several concentrations of octopromycin (0, 5, 10, 25, 50, 100, and 200 μg/mL) were tested as standard antibiotics (positive control) together with chloramphenicol (10 μg/mL, Sigma-Aldrich, USA) acting on A. baumannii growth and the MBC of chloramphenicol was confirmed according to the same procedure. The MIC was determined as the minimum concentration required to inhibit visual growth of A. baumannii. […] For analysis of time-kill kinetics, A. baumannii was cultured with octopromycin at various concentrations (0, 25, 50, 100, and 200 μg/mL) in the TSA medium at 25° C., and at different time intervals (0, 3, 6, 9, 12, 18, and 21 h), the absorbance was measured at 595 nm using a microplate reader (Bio-Rad, Saint Louis, USA) to confirm an inhibitory effect after culturing.

Data set [2] concerns A. baumannii. Nature of the data set: Propidium iodide (PI) uptake / FDA staining membrane permeability assay (CLSM). Format: cell-based, Acinetobacter baumannii. The note with it: 10 μg/mL, positive control. As for the experimental part: Propidium iodide (PI) uptake assay was performed to evaluate an effect of octopromycin on association with the membrane permeability and apoptosis of A. baumannii. The PI was a red fluorescent nuclear and chromosome counter dye that indicated changes in cell membrane permeability, and was used to detect the presence of dead cells and simultaneously observe live cells by observing green fluorescence (FDA). A. baumannii treated with octopromycin at MIC; 50 μg/mL and MBC; 200 μg/mL levels and control cell suspensions were centrifuged (5000 rpm for 2 minutes), washed with PBS and the pellets were suspended in PBS. Subsequently, the cells were cultured with 20 μg/mL of PI (Sigma Aldrich, USA) and 8 μg/mL of FDA (Sigma Aldrich, USA) at 25° C. for 30 minutes in the dark, and finally, the remaining dye was washed with PBS. Finally, a 5 μL drop of each suspension was placed on a cover slip and fluorescence images were observed using a CLSM integrated with a scan head on an Axiovert 200M inverted microscope (Carl Zeiss, Germany).

A further data set deals with A. baumannii biofilm. Nature of the data set: microbe, parasite or virus in culture. In kind it is cell-based. As to conditions: Acinetobacter baumannii; 10 μg/mL, positive control; read-out: biofilm formation inhibition. As for the experimental part:
In order to investigate an effect of octopromycin on the biofilm of A. baumannii, analysis for biofilm formation inhibition and eradication was performed.
To examine the inhibitory effect of an octopromycin peptide on biofilm formation, A. baumannii was cultured in TSB. The bacteria were diluted to 5×10^5 CFU/mL in a TSB medium, then 97.5 mL and 90 mL of bacterial suspensions were mixed with 2.5 mL and 10 mL of peptides, respectively, to reach 50 μg/mL (MIC) and 200 μg/mL (MBC), and cultured on a 96-well plate for 24 hours. Then, the supernatant was carefully removed, and the formed biofilm was fixed with 100% methanol for 10 minutes. After methanol was removed, the biofilm was stained with 0.1% crystal violet for 30 minutes. Subsequently, the plate was washed 3 times with distilled water. Finally, the biofilm was completely dissolved in 95% ethanol and absorbance was measured at 495 nm using a microplate reader (Bio-Rad, USA).

The next data set relates to mouse red blood cells. In kind it is cell-based. How it is done:
Systemic application of octopromycin as an antibiotic requires low toxicity to red blood cells. Accordingly, an in vitro hemolysis assay was performed using mouse red blood cells […].
The hemolytic activity of the peptide was evaluated using mouse red blood cells (RBC). The RBCs were washed 3 times with phosphate buffered saline (PBS) until the supernatant was clear. Different concentrations of octopromycin (0, 25, 50, 100, 200, 300 μg/mL) were added to 1.5 ml Eppendorf tubes. The RBCs were added at a final concentration of 8% (v/v) in a total volume of 500 μL. The RBCs were incubated for 1 hour, and then centrifuged for 10 minutes and the absorbance of the supernatant was measured at 414 nm.
Percent hemolysis was calculated using Equation:
Hemolysis (%)=(A414 of Peptide−A414 of PBS)/(A414 of Triton−A414 of PBS)×100

`O=C(N[C@H](CO)[C@H](O)c1ccc([N+](=O)[O-])cc1)C(Cl)Cl` [chloramphenicol, reference compound]: the “growth inhibition (time-kill kinetics)” value with A. baumannii [1] is listed as “growth inhibition was similar to that of 50 μg/mL of octopromycin”. Also, the “membrane permeability (PI/FDA staining)” value in the data set on A. baumannii [2] is listed as “high membrane permeability”. The inhibition at 10 µg/mL with A. baumannii biofilm is 85.9%.

Molecule Triton X-100 showed a hemolysis in the data set on mouse red blood cells of 100%.
